Data published in US8389247B2, “Physiogenomic method for predicting diabetes and metabolic syndromes induced by psychotropic drugs” (priority 2006, dated 2013).

Key:
[1] = cited from earlier work
[2] = Outcome variables of patients on each psychotropic drug broken down by demographic factors (Covariates tables); type: in vivo, human
[3] = Physiogenomic SNP association screen: single-SNP coefficients for metabolic syndrome outcomes in patients on psychotropic drugs
Excerpt: Various SNPs associated with, for example, the observation of various parameters of metabolic syndromes in patients on psychotropic drugs were screened. The endpoints analyzed were the blood levels of LDL, HDL, and glucose; blood pressure; body mass index; waist circumference; and metabolic syndromes index. The physiogenomic model was developed using the following procedure: 1) Establish a covariate model using only the demographic and clinical variables, 2) Screen for associated genetic markers by testing each SNP against the unexplained residual of the covariate model, and 3) Establish a revised model incorporating the significant associations from the SNP screen. All models are simple linear regression models, but other well-known statistical methods are contemplated to be useful.
In the SNP screen (step 2), the p-values for each SNP were obtained by adding the SNP to the covariate model and comparing the resulting model improvement with up to 10,000 simulated model improvements using the same data set, but with the genotype data randomly permuted to remove any true association. This method produces a p-value that is a direct, unbiased, and model-free estimate of the probability of finding a model as good as the one tested when the null hypothesis of no association is true. All SNPs with a screening p-value of better than 0.003 were selected to be included in the physiogenomic model (step 3).
Data Analysis. Covariates were analyzed using multiple linear regression and the stepwise procedure. An extended linear model was constructed including the significant covariate and the SNP genotype. SNP genotype was coded quantitatively as a numerical variable indicating the number of minor alleles: 0 for major homozygotes, 1 for heterozygotes, and 2 for minor homozygotes. The F-statistic p-value for the SNP variable was used to evaluate the significance of association. The validity of the p-values were tested by performance of an independent calculation of the p-values using permutation testing. To account for the multiple testing of multiple SNPs, adjusted p-values were calculated using Benjamini and Hochbergs false discovery rate (FDR) procedure [Reinere A, Yekutiele D, Benjamini Y: Identifying differentially expressed genes using false discovery rate controlling procedures. Bioinformatics 19:368-375 (2003); Benjamini Y, Hochberg Y: Controlling the false discovery rate: a practical and powerful approach to multiple testing. Journal of the Royal Statistical Society, Series B 57:289-300 (1995); Benjamini Y, Hochberg Y: On the adaptive control of the false discovery rate in multiple testing with independent statistics. Journal of Educational and Behavioral Statistics 25:60-83 (2000)]. In addition, the power for detecting an association based on the Bonferroni multiple comparison adjustment was evaluated. For each SNP, the effect size in standard deviations that was necessary for detection of an association at a power of 80% (20% false negative rate) was calculated using the formula: […]

[4] = Excerpt: b. Model Building. […] A model was developed for the purpose of predicting a given response (Y) to psychotropic drugs. A linear model for subjects in a group of patients subjected to psychotropic drugs was used in which the response of interest can be expressed as follows:
[formula] where Mi are the dummy marker variables indicating the presence of specified genotypes and Dj are demographic and clinical covariates. The model parameters that are to be estimated from the data are R0, αi and βj. […] S-plus provides very good support for algorithms that provide these estimates for the initial linear regression models, as well other generalized linear models that may be used when the error distribution is not normal. For continuous variables, generalized additive models, including cubic splines in order to appropriately assess the form for the dose-response relationship may also be considered [Hastie T, Tibshirani R. Generalized additive models. Stat. Sci. 1: 297-318 (1986); Durrleman S, Simon R. Flexible regression models with cubic splines. Statistics in Medicine 8:551-561 (1989)].
In addition to optimizing the parameters, model refinement is performed. The first phase of the regression analysis will consist of considering a set of simplified models by eliminating each variable in turn and re-optimizing the likelihood function. The ratio between the two maximum likelihoods of the original vs. the simplified model then provides a significance measure for the contribution of each variable to the model.
Each physiotype in this particular embodiment consists of a selection of markers, and intercept value (C), and a coefficient (ci) for each marker. […] The predicted LDL response for a given individual is then given by the formula:
[formula] where C is the intercept, the ci are the coefficients and the gi are the genotypes, coded 0 for the wild type allele homozygote, 1 for the heterozygote, and 2 for the variant allele homozygote.

CN1CCN(C2=Nc3cc(Cl)ccc3Nc3ccccc32)CC1 [clozapine]
treated patients with induced weight gain, diabetes and other metabolic derangements [1]: 50%

O=C1Cc2cc(CCN3CCN(c4nsc5ccccc45)CC3)c(Cl)cc2N1 [Ziprasidone, ziprasidone]
LDL ([2]; Age 20-30): 79.20 | LDL ([2]; Age 30-40): 98.42 | LDL ([2]; Age 40-50): 75.18 | LDL ([2]; Age 50-60): 135.00 | LDL ([2]; Age 60-70): 154.00 | LDL ([2]; Age <20): 89.50 | LDL ([2]; All): 88.32 | LDL ([2]; Gender female): 98.11 | LDL ([2]; Gender male): 79.05 | LDL ([2]; Heritage AA): 63.17 | LDL ([2]; Heritage Cauc.): 93.19 | Log (TG) ([2]; human, in vivo): 4.968 | LDL ([2]; patients on the named drug): 88.32 | Coeff. LDL Cholesterol ([3]; SNP rs40318, gene PIK3R1, allele TC, p 4.80E−02): 22.72 | Coeff. LDL Cholesterol ([3]; SNP rs1322783, gene DISC1, allele TC, p 1.26E−02): −27.8566 | Coeff. LDL Cholesterol ([3]; SNP rs1614845, gene HRH3, allele TC, p 4.20E−02): −21.1697 | Coeff. LDL Cholesterol ([3]; SNP rs1951795, gene HIF1A, allele AC, p 2.81E−02): 17.21 | Coeff. LDL Cholesterol ([3]; SNP rs2067477, gene CHRM1, allele AC, p 4.47E−02): −23.7833 | Coeff. LDL Cholesterol ([3]; SNP rs2228139, gene IL1R1, allele GC, p 1.74E−02): −42.4134 | Coeff. LDL Cholesterol ([3]; SNP rs2269935, gene PFKM, allele AC, p 1.38E−02): −29.0481 | Coeff. LDL Cholesterol ([3]; SNP rs2301108, gene HIF1A, allele AG, p 4.60E−03): 27.41 | Coeff. LDL Cholesterol ([3]; SNP rs2856929, gene PKM2, allele AG, p 2.55E−02): −21.0303 | Coeff. HDL Cholesterol ([3]; SNP rs3757868, gene ACHE, allele AG, p 2.11E−02): 9.221 | Coeff. Ratio of Total Cholesterol to HDL Cholesterol ([3]; SNP rs3757868, gene ACHE, allele AG, p 2.47E−02): −0.8869 | Coeff. LDL Cholesterol ([3]; SNP rs3816873, gene MTP, allele TC, p 2.73E−02): −19.1531 | Coeff. LDL Cholesterol ([3]; SNP rs6700734, gene TNFSF6, allele AG, p 1.15E−02): 21.53 | Coeff. LDL Cholesterol ([3]; SNP rs6967107, gene WBSCR14, allele AC, p 5.00E−02): −28.3763 | Coeff. LDL Cholesterol ([3]; SNP rs6976017, gene CYP3A5, allele AG, p 4.34E−03): −45.408 | Coeff. LDL Cholesterol ([3]; SNP rs7816340, gene ADRA1A, allele TC, p 4.22E−02): 24.97 | Coeff. LDL Cholesterol ([3]; SNP rs10082776, gene RARG, allele AG, p 1.92E−02): −24.15

O=C1CCc2ccc(OCCCCN3CCN(c4cccc(Cl)c4Cl)CC3)cc2N1 [Arapiprazole, arapiprazole]
LDL ([2]; Age 20-30, N 8): 90.5 | LDL ([2]; Age 30-40, N 16): 97.19 | LDL ([2]; Age 40-50, N 8): 94.25 | LDL ([2]; Age 50-60, N 4): 83 | LDL ([2]; All, N 36): 93.47 | LDL ([2]; Heritage African Am, N 3): 104 | LDL ([2]; Heritage Caucasian, N 33): 92.52 | LDL ([2]; female, N 10): 87 | BM ([2]; human, in vivo): 86.58 | Waist ([2]; human, in vivo): 101.34 | dBP ([2]; human, in vivo): 75.86 | sBP ([2]; human, in vivo): 122.17 | LDL ([2]; male, N 26): 95.96 | LDL ([2]; patients on the named drug): 93.47 | Coeff. LDL Cholesterol ([3]; SNP rs264 LPL allele AG p 3.00E−03): −26.5842 | Coeff. LDL Cholesterol ([3]; SNP rs7412 APOE allele TC p 1.42E−02): −26.3527 | Coeff. LDL Cholesterol ([3]; SNP rs140700 SLC6A4 allele AG p 1.76E−02): 34.06 | Coeff. LDL Cholesterol ([3]; SNP rs231460 PYY allele TC p 7.02E−03): −22.8702 | Coeff. LDL Cholesterol ([3]; SNP rs701492 GAD1 allele TC p 1.25E−04): −41.2222 | Coeff. LDL Cholesterol ([3]; SNP rs1057910 CYP2C9 allele AC p 9.03E−04): 25.75 | Coeff. LDL Cholesterol ([3]; SNP rs1176744 HTR3B allele TG p 2.77E−02): −14.3889 | Coeff. LDL Cholesterol ([3]; SNP rs1805002 CCKBR allele AG p 3.93E−02): −32.875 | Coeff. LDL Cholesterol ([3]; SNP rs1871143 GYS2 allele TG p 4.09E−02): −14.1588 | Coeff. LDL Cholesterol ([3]; SNP rs2070937 HP allele AG p 3.68E−02): 16.59 | Coeff. LDL Cholesterol ([3]; SNP rs2192752 IL1R1 allele AC p 3.35E−02): 19.88 | Coeff. LDL Cholesterol ([3]; SNP rs2227852 DRD5 allele AG p 1.36E−02): −28.1852 | Coeff. LDL Cholesterol ([3]; SNP rs2229416 ACACA allele AG p 1.41E−02): −29.2143 | Coeff. LDL Cholesterol ([3]; SNP rs2306179 GYS2 allele AG p 2.72E−02): −15.1786 | Coeff. LDL Cholesterol ([3]; SNP rs3760396 CCL2 allele GC p 4.10E−02): −15.8942 | Coeff. LDL Cholesterol ([3]; SNP rs3762611 GABRA4 allele AG p 1.49E−02): −18.7032 | Coeff. LDL Cholesterol ([3]; SNP rs3822222 CCKAR allele TC p 8.57E−03): 24.98 | Coeff. LDL Cholesterol ([3]; SNP rs4795180 ACACA allele TG p 1.41E−02): −29.2143 | Coeff. LDL Cholesterol ([3]; SNP rs5030390 ICAM1 allele AG p 1.30E−02): −27.8333 | Coeff. LDL Cholesterol ([3]; SNP rs7816340 ADRA1A allele TC p 4.36E−02): −25.5911 | Coeff. LDL Cholesterol ([3]; SNP rs9904270 RARA allele TC p 2.39E−03): −37.1182 | Coeff. LDL Cholesterol ([3]; SNP rs10509676 CYP2C19 allele TA p 1.50E−02): −24.25 | Intercept (C), Blood Glucose Physiotype [4]: Intercept (C) = 0.3665 | Intercept (C), Body Mass Physiotype [4]: Intercept (C) = 0.1845 | Intercept (C), Diastolic Blood Pressure Physiotype [4]: Intercept (C) = −0.05506 | Intercept (C), HDL Cholesterol Physiotype [4]: Intercept (C) = −0.3706 | Intercept (C), LDL Cholesterol Physiotype [4]: Intercept (C) = 0.2441 | Intercept (C), Log (TG) Physiotype [4]: Intercept (C) = 0.9167 | Intercept (C), Systolic Blood Pressure Physiotype [4]: Intercept (C) = −0.1862 | Intercept (C), Waist circumference Physiotype [4]: Intercept (C) = −0.888
